# Laboratory results published in PMC8533202, “Design of Inhibitors of the Intrinsically Disordered Protein NUPR1: Balance between Drug Affinity and Target Function” (Biomolecules, 2021).
# Several values for one entry are separate records, joined by “and”; a condition that tells them apart may be missing. Identical values can stand only once. Like-named read-outs stand apart in the source and are kept apart here.
# Tests used:
# NUPR1 [1] = target: T1, NUPR1 (Homo sapiens, UniProt O60356); assay: Isothermal titration calorimetry (ITC) binding to NUPR1; conditions: 25 °C; for N (stoichiometry) / ΔG / ΔH / −TΔS: pH 7.0; for Ka / Kd: sodium phosphate 20 mM, pH 7.0, 2% DMSO; for Kd: read-out: Kd (=1/Ka)
# T1 construct: made in house
# T1 sequence (O60356 1-82): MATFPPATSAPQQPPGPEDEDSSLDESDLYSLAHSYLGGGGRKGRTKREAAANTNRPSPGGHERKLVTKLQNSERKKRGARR
# Experimental: The binding of the ZZW-115-derived compounds to NUPR1 was determined as described by using a high sensitivity isothermal titration calorimeter Auto-iTC200 (MicroCal, Malvern-Panalytical, Malvern, UK). Protein samples and solutions were properly degassed. Experiments were performed with freshly prepared protein solutions at 25 °C. A solution of NUPR1 (20 μM, in sodium phosphate 20 mM, pH 7.0, 2% DMSO) in the calorimetric cell was titrated with a solution of each compound (200 μM, in sodium phosphate 20 mM pH 7.0, 2% DMSO). The inhibitors were dissolved in the same buffer used for the protein. A standard protocol was employed: 19 titrant injections with 2 μL compound solution were programmed with a time spacing of 150 s, a stirring speed of 750 rpm, and a reference power of 10 μcal/s. The heat evolved after each ligand injection was calculated from the integral of the calorimetric signal. The heat due to the binding reaction was obtained as the difference between the reaction heat and the corresponding heat of injection, the latter estimated as a constant value throughout the experiment, and included as an adjustable parameter in the analysis. Control experiments (with the compounds injected into the buffer) were performed under the same experimental conditions.
# The association constant (Ka), the enthalpy change (ΔH) and the stoichiometry (n) of the binding reaction were obtained through nonlinear regression analysis of experimental data to a model assuming a single ligand binding site for the protein. Experiments were performed in replicate and data were analyzed using in-house-developed software implemented in Origin 7 (OriginLab).
# The interaction between ZZW-115-Derived compounds and NUPR1 was studied by using ITC, the gold-standard technique in binding-affinity determination, to test our theoretical prediction. […] From the thermogram (thermal power as a function of time), the binding isotherm (ligand-normalized heat as a function of the molar ratio) was obtained through integration of the individual heat effect associated with injection of each ligand solution (Figure 3). We used a nonlinear least-squares regression analysis employing a model that considered a single binding site in NUPR1 to estimate binding parameters such as the dissociation constant and the binding enthalpy.
# [2] = tested on: NUPR1 nuclear translocation; assay: NUPR1 nuclear translocation, immunofluorescence in MiaPaCa-2 cells; type: cell-based, human; conditions: 3 µM, 6 h (Figure 4)
# Experimental: Cells (100000 cells/well) were seeded in 12-well plates on coverslips overnight and then treated with 3 μM concentration of each compound for […]. After fixation with 4% paraformaldehyde (Sigma-Aldrich, St. Quentin, Fallavier, France) for 15 min, cells were washed twice with 1x PBS and incubated 1 h with the following antibodies at 1:200 dilution: rabbit anti-NUPR1 primary antibody (homemade) or γH2AX primary antibody (ab26350, Abcam, Paris, France). After the washing steps, samples were incubated 1 h with secondary antibodies at 1:500 dilution (goat anti-rabbit Alexa Fluor 488, A27034, or goat anti-mouse Alexa Fluor 488, A28175, both from Thermo Fisher Scientific, Franklin, MA, USA). ProLong™ Gold Antifade Mountant with DAPI (P36931, Thermo Fisher Scientific) was used to stain the nucleus and seal the samples. Image acquisition of Alexa Fluor 488-derived fluorescence and DAPI staining was detected with an LSM 880 controlled by Zeiss Zen Black 63x lens. Co-localization analysis and measurements in both channels were performed by using the ImageJ Coloc 2 plugin (version 3.0.5).
# MiaPaCa-2 cells were treated with representative ZZW-115-derived compounds (3 µM) for 6 h. […] DAPI staining was used to detect cell nuclei, and it was combined with the Alexa 488 fluorescence in the merged panel. […]
# MiaPaCa-2 cells [3] = assay: Cell viability assay (PrestoBlue); type: cell-based, human; conditions: MiaPaCa-2, 72 h
# Experimental: (§1) Cell viability was evaluated in ten pancreatic cancer cell lines, including MiaPaCa-2, and nine primary pancreatic cancer-derived cell lines: PDAC001T, PDAC012T, PDAC021T, PDAC081T, PDAC082T, PDAC087T, PDAC088T, PDAC089T, and PDAC115T. MiaPaCa-2 cells were obtained from ATCC (Manassas, VA, USA) and maintained in DMEM (Invitrogen, Cergy-Pontoise, France), supplemented with 10% […] at 37 °C with 5% CO2. The primary pancreatic cancer-derived cells were cultured in serum free ductal media (SFDM) following a procedure adapted from those previously described, without antibiotic, and incubated at 37 °C in a 5% CO2 incubator. Cells were plated in 96-well plates (5000 cells/well) overnight. Then, the media were supplemented with the compounds to be tested at 0–100 µM concentration, and the samples were incubated for another additional 72 h before performing the measurement. Cell viability was estimated after addition of PrestoBlue™ reagent (Life Technologies, Paris, France) for 3 h according to the PrestoBlue™ cell viability reagent protocol provided by the supplier. Cell viability was normalized when comparing to untreated cell rates. Experiments were performed in triplicate and each set was repeated three times, with similar results.
# PDAC001T cells [4] = assay: Cell viability assay (PrestoBlue); type: cell-based; conditions: Homo sapiens; PDAC001T (basal subtype), 72 h
# Excerpt: (§2) Primary pancreatic cancer cells PDAC001T, PDAC012T, PDAC021T, PDAC081T, PDAC082T, PDAC087T, PDAC088T, PDAC089T, and PDAC115T were obtained from the PaCaOmics clinical trial registered at www.clinicaltrials.gov (accessed on 2 October 2021) with registration number NCT01692873. We included PDAC samples from both echoendoscopic ultrasound-guided fine-needle (EUS-FNA) biopsies for patients with unresectable tumors and from surgical specimens for patients undergoing surgery. The tumor samples of these patients were used to generate patient-derived xenograft in nude mice as previously reported. Xenografts obtained from mice were split into several small pieces and used for cell culture in a biosafety chamber: after fine mincing, they were treated with collagenase type V (ref C9263; Sigma-Aldrich, St. Louis, MO, USA) and trypsin/EDTA (ref 25200-056; Gibco, Life Technologies, Grand Island, NY, USA) and were suspended in Dulbecco’s modified Eagle’s medium supplemented with 1% w/w penicillin/streptomycin (Gibco, Life Technologies, Paisley, UK) and 10% fetal bovine serum (Lonza Inc., Walkersville, MD, USA). After centrifugation, cells were resuspended in serum-free ductal media adapted from Schreiber et al. at 37 °C in a 5% CO2 incubator. Amplified cells were stored in liquid nitrogen as previously reported. Cells were weaned from antibiotics for ≥48 h before testing.
# as §1
# PDAC021T cells [5] = assay: Cell viability assay (PrestoBlue); type: cell-based; conditions: Homo sapiens; PDAC021T (basal subtype), 72 h
# Excerpt: as §2, §1
# PDAC087T cells [6] = assay: Cell viability assay (PrestoBlue); type: cell-based; conditions: Homo sapiens; PDAC087T (basal subtype), 72 h
# Excerpt: as §2, §1
# PDAC012T cells [7] = assay: Cell viability assay (PrestoBlue); type: cell-based; conditions: Homo sapiens; PDAC012T (classical subtype), 72 h
# Excerpt: as §2, §1
# PDAC089T cells [8] = assay: Cell viability assay (PrestoBlue); type: cell-based; conditions: Homo sapiens; PDAC089T (derived from a liver metastasis), 72 h
# Excerpt: as §2, §1
# PDAC088T cells [9] = assay: Cell viability assay (PrestoBlue); type: cell-based; conditions: Homo sapiens; PDAC088T (classical subtype), 72 h
# Excerpt: as §2, §1
# PDAC081T cells [10] = assay: Cell viability assay (PrestoBlue); type: cell-based; conditions: Homo sapiens; PDAC081T (classical subtype), 72 h
# Excerpt: as §2, §1
# PDAC082T cells [11] = assay: Cell viability assay (PrestoBlue); type: cell-based; conditions: Homo sapiens; PDAC082T (classical subtype), 72 h
# Excerpt: as §2, §1
# PDAC115T cells [12] = assay: Cell viability assay (PrestoBlue); type: cell-based; conditions: Homo sapiens; PDAC115T (basal subtype), 72 h
# Excerpt: as §2, §1
# PDAC001T cells [13] = tested on: PDAC001T cells; design: method as in PMID 30920390; conditions: control, previously obtained; cited from earlier work
# PDAC088T cells [14] = tested on: PDAC088T cells; design: method as in PMID 30920390; conditions: control, previously obtained; cited from earlier work
# MiaPaCa-2 cells [15] = tested on: MiaPaCa-2 cells; design: method as in PMID 30920390; conditions: control, previously obtained; cited from earlier work
# PDAC081T cells [16] = tested on: PDAC081T cells; design: method as in PMID 30920390; conditions: control, previously obtained; cited from earlier work
# NUPR1 [17] = target: T1, NUPR1; design: method as in PMID 30920390; conditions: ITC; cited from earlier work
# PDAC082T cells [18] = tested on: PDAC082T cells; design: method as in PMID 30920390; conditions: control, previously obtained; cited from earlier work
# PDAC087T cells [19] = tested on: PDAC087T cells; design: method as in PMID 30920390; conditions: control, previously obtained; cited from earlier work
# PDAC115T cells [20] = tested on: PDAC115T cells; design: method as in PMID 30920390; conditions: control, previously obtained; cited from earlier work
# PDAC089T cells [21] = tested on: PDAC089T cells; design: method as in PMID 30920390; conditions: control, previously obtained; cited from earlier work
# PDAC021T cells [22] = tested on: PDAC021T cells; design: method as in PMID 30920390; conditions: control, previously obtained; cited from earlier work
# PDAC012T cells [23] = tested on: PDAC012T cells; design: method as in PMID 30920390; conditions: control, previously obtained; cited from earlier work
# NUPR1 [24] = target: T1, NUPR1; design: method as in PMID 28054562; conditions: molecular scaffold of TFP; cited from earlier work
compound,measurement,setting,value
FC(F)(F)c1ccc2c(c1)N(CCCN1CCN(CCN3CCOCC3)CC1)c1ccccc1S2 [ZZW-132],N (stoichiometry),NUPR1 [1],1.2 ± 0.1
same,ΔG,NUPR1 [1],−7.9 ± 0.1 kcal mol^–1
same,ΔH,NUPR1 [1],0.3 ± 0.3 kcal mol^–1
same,−TΔS,NUPR1 [1],−8.2 ± 0.3 kcal mol^–1
same,Ka,NUPR1 [1],5.8 ± 0.4 M^–1 × 10^5
same,Kd,NUPR1 [1],~1.7 µM and 1.7 µM
same,ability to hamper NUPR1 nuclear translocation,[2],worst effect in hampering the nuclear translocation efficiency
same,IC50,"MiaPaCa-2 cells [3]; Homo sapiens, MIA PaCa-2, 72 h",~1 µM
same,IC50,MiaPaCa-2 cells [3],1.04 µM
same,IC50,PDAC001T cells [4],12.5 µM
same,IC50,PDAC021T cells [5],16.5 µM
same,IC50,PDAC087T cells [6],16.6 µM
same,IC50,PDAC012T cells [7],12.2 µM
same,IC50,PDAC089T cells [8],29.1 µM
same,IC50,PDAC088T cells [9],23.6 µM
same,IC50,PDAC081T cells [10],1.91 µM
same,IC50,PDAC082T cells [11],21.1 µM
same,IC50,PDAC115T cells [12],16.1 µM
CN(C)CCN1CCN(CCCN2c3ccccc3Sc3ccc(C(F)(F)F)cc32)CC1 [ZZW-115],IC50,PDAC001T cells [13],1.84 µM
same,IC50,PDAC088T cells [14],5.29 µM
same,IC50,MiaPaCa-2 cells [15],0.32 µM
same,IC50,PDAC081T cells [16],0.84 µM
same,Ka,NUPR1 [17],4.7 ± 0.4 M^–1 × 10^5
same,N (stoichiometry),NUPR1 [17],0.9 ± 0.1
same,ΔG,NUPR1 [17],−7.7 ± 0.1 kcal mol^–1
same,ΔH,NUPR1 [17],−0.4 ± 0.3 kcal mol^–1
same,−TΔS,NUPR1 [17],−7.3 ± 0.3 kcal mol^–1
same,IC50,PDAC082T cells [18],2.36 µM
same,IC50,PDAC087T cells [19],3.72 µM
same,IC50,PDAC115T cells [20],2.21 µM
same,IC50,PDAC089T cells [21],4.72 µM
same,IC50,PDAC021T cells [22],2.54 µM
same,IC50,PDAC012T cells [23],2.44 µM
CN(C)CCCN1CCN(CCCN2c3ccccc3Sc3ccc(C(F)(F)F)cc32)CC1 [ZZW-142],N (stoichiometry),NUPR1 [1],1.3 ± 0.1
same,ΔG,NUPR1 [1],−7.8 ± 0.1 kcal mol^–1
same,ΔH,NUPR1 [1],0.3 ± 0.3 kcal mol^–1
same,−TΔS,NUPR1 [1],−8.1 ± 0.3 kcal mol^–1
same,Ka,NUPR1 [1],4.9 ± 0.3 M^–1 × 10^5
same,Kd,NUPR1 [1],2 ± 0.2 µM
same,ability to hamper NUPR1 nuclear translocation,[2],worst effect in hampering the nuclear translocation efficiency
same,IC50,"MiaPaCa-2 cells [3]; Homo sapiens, MIA PaCa-2, 72 h",~1 µM
same,IC50,MiaPaCa-2 cells [3],0.95 µM
same,IC50,PDAC001T cells [4],11.9 µM
same,IC50,PDAC021T cells [5],17 µM
same,IC50,PDAC087T cells [6],16.6 µM
same,IC50,PDAC012T cells [7],12.8 µM
same,IC50,PDAC089T cells [8],22.5 µM
same,IC50,PDAC088T cells [9],23.9 µM
same,IC50,PDAC081T cells [10],2.27 µM
same,IC50,PDAC082T cells [11],23 µM
same,IC50,PDAC115T cells [12],14.7 µM
"CN1CCN(CCCN2c3ccccc3Sc3ccc(C(F)(F)F)cc32)CC1 [TFP, trifluoperazine]",IC50,PDAC001T cells [13],12.5 µM
same,IC50,PDAC088T cells [14],15.9 µM
same,IC50,MiaPaCa-2 cells [15],9.28 µM
same,IC50,PDAC081T cells [16],2.48 µM
same,Ka,NUPR1 [17],1.9 ± 0.2 M^–1 × 10^5
same,N (stoichiometry),NUPR1 [17],1.0 ± 0.1
same,ΔG,NUPR1 [17],−7.2 ± 0.1 kcal mol^–1
same,ΔH,NUPR1 [17],−1.1 ± 0.4 kcal mol^–1
same,−TΔS,NUPR1 [17],−6.1 ± 0.4 kcal mol^–1
same,IC50,PDAC082T cells [18],21.5 µM
same,calculated binding score,NUPR1 [24],–7.0 kcal/mol
same,IC50,PDAC087T cells [19],7.8 µM
same,IC50,PDAC115T cells [20],10.1 µM
same,IC50,PDAC089T cells [21],8.09 µM
same,IC50,PDAC021T cells [22],23.5 µM
same,IC50,PDAC012T cells [23],20.4 µM
